Measured values published in ChEMBL document CHEMBL5537193, “Multitargeting HDAC Inhibitors Containing a RAS/RAF Protein Interfering Unit” (J Med Chem, 2024).

Legend:
L02 = assay: cells; conditions: Homo sapiens, L02, 72 h
Description: Cytotoxicity against human L02 cells assessed as inhibition of cell growth incubated for 72 hrs by MTT assay

SGC-7901 = assay: cells; conditions: Homo sapiens, SGC-7901, 72 h
Description: Cytotoxicity against human SGC-7901 cells assessed as inhibition of cell growth incubated for 72 hrs by MTT assay

HepG2 = assay: cells; conditions: Homo sapiens, HepG2, 72 h
Description: Cytotoxicity against human HepG2 cells assessed as inhibition of cell growth incubated for 72 hrs by MTT assay

A549 = assay: cells; conditions: Homo sapiens, A549, 72 h
Description: Cytotoxicity against human A549 cells assessed as inhibition of cell growth incubated for 72 hrs by MTT assay

MCF7 = assay: cells; conditions: Homo sapiens, MCF7, 72 h
Description: Cytotoxicity against human MCF7 cells assessed as inhibition of cell growth incubated for 72 hrs by MTT assay

NCI-H1975 = assay: cells; conditions: Homo sapiens, NCI-H1975, 72 h
Description: Cytotoxicity against human NCI-H1975 cells assessed as inhibition of cell growth incubated for 72 hrs by MTT assay

A-431 = assay: cells; conditions: Homo sapiens, A-431, 72 h
Description: Cytotoxicity against human A-431 cells assessed as inhibition of cell growth incubated for 72 hrs by MTT assay

[1] = Metabolic stability in human liver microsomes assessed as intrinsic clearance measured upto 40 mins by LC-MS/MS analysis; format: ADME, Microsome; conditions: read-out: CLH
[2] = Metabolic stability in rat liver microsomes assessed as half-life measured upto 40 mins by LC-MS/MS analysis; format: ADME, Microsome
[3] = Metabolic stability in human liver microsomes assessed as half-life measured upto 40 mins by LC-MS/MS analysis; format: ADME, Microsome
[4] = Metabolic stability in mouse liver microsomes assessed as half-life measured upto 40 mins by LC-MS/MS analysis; format: ADME, Microsome
[5] = Metabolic stability in mouse liver microsomes assessed as intrinsic clearance measured upto 40 mins by LC-MS/MS analysis; format: ADME, Microsome; conditions: read-out: CLH
[6] = Metabolic stability in rat liver microsomes assessed as intrinsic clearance measured upto 40 mins by LC-MS/MS analysis; format: ADME, Microsome; conditions: read-out: CLH

Row | Compound | IC50 (L02) [µM] | IC50 (SGC-7901) [µM] | IC50 (HepG2) [µM] | IC50 (A549) [µM] | IC50 (MCF7) [µM] | IC50 (NCI-H1975) [µM] | IC50 (A-431) [µM] | CLint scaled [1] [mL/min/kg] | half-life [2] [min] | half-life [3] [min] | half-life [4] [min] | CLint scaled [5] [mL/min/kg] | CLint scaled [6] [mL/min/kg]
1 | COc1cc(OC)c(/C=C/S(=O)(=O)Cc2ccc(OC)c(NCC(=O)Nc3ccccc3N)c2)c(OC)c1 | > 40 | 4.98 | 4.75 | 3.67 | 4.94 | 2.18 | 4.14 |  |  |  |  |  | 
2 | COc1cc(OC)c(/C=C/S(=O)(=O)Cc2ccc(OC)c(NCCCCCC(=O)Nc3ccccc3N)c2)c(OC)c1 | > 40 | 8.89 | 7.54 | 12.8 | 10.5 | 4.75 | 4.47 |  |  |  |  |  | 
3 | O=C(c1ccc(F)cc1)C1CCN(CCn2c(=O)[nH]c3ccccc3c2=O)CC1 [KETANSERIN] |  |  |  |  |  |  |  | 47.5 | 17.6 | 36.6 | 20.6 | 265 | 141
